Experimental data taken from ChEMBL document CHEMBL5154900, “Design and Synthesis of Dual EZH2/BRD4 Inhibitors to Target Solid Tumors” (J Med Chem, 2022).
Activity calls are given as the source filed them. No cut-off for these calls is given here.

Assays:
HCT-116 [1] = assay: Induction of apoptosis in human HCT116 cells assessed as early apoptotic cells at 20 uM measured after 72 hrs by flow cytometry (reference value: 2.8 %); format: functional
[2] = target: T1, Histone-lysine N-methyltransferase EZH2 (Homo sapiens, UniProt Q15910); assay: Inhibition of EZH2 in human ASPC1 cells assessed as decrease in H3K27me3 levels at 1 uM incubated for 72 hrs by Western blot analysis; format: cell-based
[3] = target: T2, Bromodomain-containing protein 4 (Homo sapiens, UniProt O60885); assay: Inhibition of BRD4 in human ASPC1 cells assessed as decrease in c-Myc level at 1 uM incubated for 72 hrs by Western blot analysis; format: cell-based
[4] = target: T2, Bromodomain-containing protein 4; assay: Binding affinity to BRD4 in human A549 cell lysate assessed as increase in thermal stability at 10 uM incubated for 1 hr followed by temperature treatment at 45 to 54.5 degC for 3 mins by thermal shift assay; format: subcellular; details: time 63.0 min
A549 [5] = assay: Inhibition of EZH2/BRD4 in human A549 cell lysate assessed as ternary complex formation at 1 uM preincubated for 24 hrs for 30 mins followed by DSP treatment by co-immunoprecipitation method; format: subcellular; details: time 24.5 hrs
HCT-116 [6] = assay: Antiproliferative activity against human HCT-116 cells assessed as inhibition of cell proliferation at 1 uM incubated for 4 days by cell counter method; format: functional, cell-based; details: time 4.0 day
ASPC1 [7] = assay: Antitumor activity against human ASPC1 cells assessed as inhibition of colony formation measured after 12 to 20 days by crystal violet staining based analysis; format: functional, cell-based; details: dose <= 0.1 µM, time 12-20 day, DDE = dose-dependent effect
HCT-116 [8] = assay: Antitumor activity against human HCT-116 cells assessed as inhibition of colony formation measured after 12 to 20 days by crystal violet staining based analysis; format: functional, cell-based; details: dose <= 0.4 µM, time 12-20 day, DDE = dose-dependent effect
[9] = target: T1, Histone-lysine N-methyltransferase EZH2; assay: Inhibition of EZH2 in human HCT-116 cells assessed as decrease in H3K27me3 level at 0.05 uM incubated for 72 hrs by Western blot analysis; format: cell-based
[10] = target: T1, Histone-lysine N-methyltransferase EZH2; assay: Inhibition of EZH2 in human A549 cells assessed as decrease in H3K27me3 level at 0.05 uM incubated for 72 hrs by Western blot analysis; format: cell-based
HCT-116 [11] = assay: Induction of apoptosis in human HCT116 cells assessed as early apoptotic cells at 10 uM measured after 72 hrs by flow cytometry (reference value: 2.8 %); format: functional
ASPC1 [12] = assay: Induction of apoptosis in human ASPC-1 cells assessed as downregulation of Bcl-2 protein at 1 uM inubated for 72 hrs by Western blot analysis; format: functional, cell-based
ASPC1 [13] = assay: Induction of apoptosis in human ASPC-1 cells assessed as downregulation of Bcl-xl protein at 1 uM inubated for 72 hrs by Western blot analysis; format: functional, cell-based
ASPC1 [14] = assay: Induction of apoptosis in human ASPC-1 cells assessed as upregulation of p21 protein at 1 uM inubated for 72 hrs by Western blot analysis; format: functional, cell-based
HCT-116 [15] = assay: Induction of apoptosis in human HCT116 cells assessed as downregulation of Bcl-2 protein at 1 uM inubated for 72 hrs by Western blot analysis; format: functional, cell-based
HCT-116 [16] = assay: Induction of apoptosis in human HCT116 cells assessed as downregulation of Bcl-xl protein at 1 uM inubated for 72 hrs by Western blot analysis; format: functional, cell-based
HCT-116 [17] = assay: Induction of apoptosis in human HCT116 cells assessed as upregulation of p21 protein at 1 uM inubated for 72 hrs by Western blot analysis; format: functional, cell-based
A549 [18] = assay: Induction of apoptosis in human A549 cells assessed as downregulation of Bcl-2 protein at 1 uM inubated for 72 hrs by Western blot analysis; format: functional, cell-based
A549 [19] = assay: Induction of apoptosis in human A549 cells assessed as upregulation of p21 protein at 1 uM inubated for 72 hrs by Western blot analysis; format: functional, cell-based
[20] = Half life in 12 hr fasted BALB/c mouse at 80 mg/kg, ip measured for 0.083 to 24 hrs by UPLC-MS/MS analysis; format: ADME, organism-based; details: in vivo, time 0.083-24 hrs
[21] = Tmax in 12 hr fasted BALB/c mouse at 80 mg/kg, ip measured for 0.083 to 24 hrs by UPLC-MS/MS analysis; format: ADME, organism-based; details: in vivo, time 0.083-24 hrs
[22] = AUC in 12 hr fasted BALB/c mouse at 80 mg/kg, ip measured for 0.083 to 24 hrs by UPLC-MS/MS analysis; format: ADME, organism-based; set-up: time lower 0.083 hrs, dose 80 mg/kg, time upper 24 hrs, route ip; details: in vivo
ASPC1 [23] = assay: Antiproliferative activity against human ASPC1 cells assessed as cell growth inhibition incubated for 6 days by MTS assay; format: functional, cell-based; details: ASPC1, 144 h, read-out: IC50
[24] = target: T2, Bromodomain-containing protein 4; assay: Displacement of fluorescein-labeled JQ1 from His6/TEV cleavage site fused human BRD4 (residues N44 to E168) expressed in Escherichia coli BL21 (DE3) incubated for 60 min by Fluorescence polarization assay
ASPC1 [25] = assay: Effect on ADRB2 mRNA levels in human ASPC1 cells at 5 uM incubated for 48 hrs by RT-qPCR analysis; format: functional, cell-based
ASPC1 [26] = assay: Effect on TXINP mRNA levels in human ASPC1 cells at 5 uM incubated for 48 hrs by RT-qPCR analysis; format: functional, cell-based
HCT-116 [27] = assay: Effect on TXINP mRNA levels in human HCT-116 cells at 5 uM incubated for 48 hrs by RT-qPCR analysis; format: functional, cell-based
A549 [28] = assay: Effect on TXINP mRNA levels in human A549 cells at 5 uM incubated for 48 hrs by RT-qPCR analysis; format: functional, cell-based
ASPC1 [29] = assay: Effect on TNFRSF21 mRNA levels in human ASPC1 cells at 5 uM incubated for 48 hrs by RT-qPCR analysis; format: functional, cell-based
A549 [30] = assay: Effect on TNFRSF21 mRNA levels in human A549 cells at 5 uM incubated for 48 hrs by RT-qPCR analysis; format: functional, cell-based
ASPC1 [31] = assay: Effect on TRHDE mRNA levels in human ASPC1 cells at 5 uM incubated for 48 hrs by RT-qPCR analysis; format: functional, cell-based
A549 [32] = assay: Effect on TRHDE mRNA levels in human A549 cells at 5 uM incubated for 48 hrs by RT-qPCR analysis; format: functional, cell-based
A549 [33] = assay: Induction of cell cycle arrest in 24 hr starved human A549 cells assessed as accumulation at G0/G1 phase at 1 uM measured after 48 hrs by PI staining based flow cytometric analysis; format: functional
[34] = Permeability of compound across apical to basolateral side in human Caco-2 cells measured for 1 to 3 hrs by LC-MS analysis; format: ADME, cell-based; details: time 1-3 hrs
A549 [35] = assay: Antitumor activity against human A549 cells xenografted in BALB/c mouse assessed as tumor growth inhibition at 80 mg/kg, ip administered 3 times weekly for 40 days and measured every 3 days relative to control; format: functional; set-up: scale not given: the % may be the effect or the level left; details: time 40 day
[36] = Toxicity in BALB/c mouse xenografted with human A549 cells assessed as body weight loss at 60 mg/kg, ip administered 6 times weekly for 38 days; format: organism-based; details: in vivo, 912 h, time 38 day
[37] = Toxicity in BALB/c mouse xenografted with human A549 cells assessed as adverse effects at 60 mg/kg, ip administered 6 times weekly for 38 days; format: organism-based; details: in vivo, 912 h, time 38 day

T1 sequence (Q15910 whole entry, looked up): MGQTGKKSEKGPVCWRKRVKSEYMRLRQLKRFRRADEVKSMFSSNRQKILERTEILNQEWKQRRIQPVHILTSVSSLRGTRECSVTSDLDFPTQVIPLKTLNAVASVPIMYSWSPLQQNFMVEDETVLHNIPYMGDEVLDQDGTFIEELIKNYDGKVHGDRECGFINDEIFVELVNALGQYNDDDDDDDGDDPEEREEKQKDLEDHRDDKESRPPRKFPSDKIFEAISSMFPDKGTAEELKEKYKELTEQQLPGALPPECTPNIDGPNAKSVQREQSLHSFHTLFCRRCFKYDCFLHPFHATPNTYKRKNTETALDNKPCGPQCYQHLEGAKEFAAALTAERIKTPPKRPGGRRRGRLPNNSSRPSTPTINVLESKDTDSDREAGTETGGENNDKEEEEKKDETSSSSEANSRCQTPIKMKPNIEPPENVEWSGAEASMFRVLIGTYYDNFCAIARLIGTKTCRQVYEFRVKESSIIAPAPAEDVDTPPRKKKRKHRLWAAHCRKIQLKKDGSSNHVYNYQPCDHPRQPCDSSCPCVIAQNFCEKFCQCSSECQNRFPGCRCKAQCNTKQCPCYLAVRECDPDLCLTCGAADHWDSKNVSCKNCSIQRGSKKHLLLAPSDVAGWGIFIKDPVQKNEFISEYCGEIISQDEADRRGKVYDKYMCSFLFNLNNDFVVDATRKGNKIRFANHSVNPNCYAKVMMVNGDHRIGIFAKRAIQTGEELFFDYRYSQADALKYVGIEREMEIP

Q: With `CCN(c1cc(-c2ccc(OCCCCCNC(=O)C[C@@H]3N=C(c4ccc(Cl)cc4)c4c(sc(C)c4C)-n4c(C)nnc43)cc2)cc(C(=O)NCc2c(C)cc(C)[nH]c2=O)c1C)C1CCOCC1` as the molecule, how does the Activity (HCT-116 [1]) read?
A: The Activity was 72.9%.

Q: And the inhibition [2]?
A: Its inhibition is “Active”.

Q: What about the inhibition [3] of the same molecule?
A: The inhibition was “Active”.

Q: What about the Activity [4] of the same molecule?
A: Its Activity is “Active”.

Q: And the inhibition (A549 [5])?
A: The inhibition was “Active”.

Q: And the Activity (HCT-116 [6])?
A: Its Activity is “Active”.

Q: And the Activity (ASPC1 [7])?
A: The Activity was “Dde”.

Q: And the Activity (HCT-116 [8])?
A: Its Activity is “Dde”.

Q: And the inhibition [9]?
A: Its inhibition is “Active”.

Q: What about the inhibition [10] of the same molecule?
A: Its inhibition is “Active”.

Q: What about the Activity (HCT-116 [11]) of the same molecule?
A: Its Activity is 63.4%.

Q: What about the Activity (ASPC1 [12]) of the same molecule?
A: Its Activity is “Active”.

Q: And the Activity (ASPC1 [13])?
A: Its Activity is “Active”.

Q: What about the Activity (ASPC1 [14]) of the same molecule?
A: Its Activity is “Active”.

Q: What about the Activity (HCT-116 [15]) of the same molecule?
A: The Activity was “Active”.

Q: What about the Activity (HCT-116 [16]) of the same molecule?
A: The Activity was “Active”.

Q: What about the Activity (HCT-116 [17]) of the same molecule?
A: The Activity was “Active”.

Q: And the Activity (A549 [18])?
A: The Activity was “Active”.

Q: And the Activity (A549 [19])?
A: The Activity was “Active”.

Q: What about the half-life [20] of the same molecule?
A: The half-life was 3.81 h.

Q: And the Tmax [21]?
A: The Tmax was 1 h.

Q: What about the AUC [22] of the same molecule?
A: Its AUC is 273 µg·h/mL.

Q: And the IC50 (ASPC1 [23])?
A: The IC50 was 690 nM.

Q: And the IC50 [24]?
A: Its IC50 is 34 nM.

Q: And the Activity (ASPC1 [25])?
A: Its Activity is “Active”.

Q: What about the Activity (ASPC1 [26]) of the same molecule?
A: The Activity was “Active”.

Q: And the Activity (HCT-116 [27])?
A: The Activity was “Active”.

Q: What about the Activity (A549 [28]) of the same molecule?
A: Its Activity is “Active”.

Q: What about the Activity (ASPC1 [29]) of the same molecule?
A: Its Activity is “Active”.

Q: What about the Activity (A549 [30]) of the same molecule?
A: Its Activity is “Active”.

Q: And the Activity (ASPC1 [31])?
A: Its Activity is “Active”.

Q: And the Activity (A549 [32])?
A: The Activity was “Active”.

Q: What about the Activity (A549 [33]) of the same molecule?
A: The Activity was “Active”.

Q: And the permeability [34]?
A: Its permeability is “Impermeable”.

Q: What about the Activity (A549 [35]) of the same molecule?
A: The Activity was 62.3%.

Q: What about the Activity [36] of the same molecule?
A: The Activity was “Non-Toxic”.

Q: What about the Activity [37] of the same molecule?
A: Its Activity is “Non-Toxic”.
